# Source: PubChem BioAssay (NCI)
#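 96-well plates; 48 h exposure; 5 concentrations. Endpoints by linear interpolation between flanking doses. Not reached: highest tested concentration assigned. GI50 = concentration required for 50% inhibition of growth. TGI: total growth inhibition.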
# Columns and labels:
# Experiment in all cases: NCI anticancer screen, dose series, 48 h
# 786-0 renal = system: 786-0 renal
# A498 renal = system: A498 renal
# ACHN renal = system: ACHN renal
# BT-549 breast = system: BT-549 breast
# CAKI-1 renal = system: CAKI-1 renal
# CCRF-CEM leukemia = system: CCRF-CEM leukemia
# DU-145 prostate = system: DU-145 prostate
# EKVX NSCLC = system: EKVX NSCLC
# HCC-2998 colon = system: HCC-2998 colon
# HCT-15 colon = system: HCT-15 colon
# HL-60(TB) leukemia = system: HL-60(TB) leukemia
# HOP-92 NSCLC = system: HOP-92 NSCLC
# HS 578T breast = system: HS 578T breast
# IGROV1 ovarian = system: IGROV1 ovarian
# LOX IMVI melanoma = system: LOX IMVI melanoma
# M14 melanoma = system: M14 melanoma
# MALME-3M melanoma = system: MALME-3M melanoma
# MCF7 breast = system: MCF7 breast
# MDA-MB-231 breast = system: MDA-MB-231 breast
# MDA-MB-435 = system: MDA-MB-435
# NCI-H226 lung = system: NCI-H226 lung
# NCI-H460 lung = system: NCI-H460 lung
# NCI-H522 lung = system: NCI-H522 lung
# NCI/ADR-RES ovarian = system: NCI/ADR-RES ovarian
# OVCAR-3 ovarian = system: OVCAR-3 ovarian
# OVCAR-8 ovarian = system: OVCAR-8 ovarian
# PC-3 prostate = system: PC-3 prostate
# RPMI-8226 leukemia = system: RPMI-8226 leukemia
# RXF 393 renal = system: RXF 393 renal
# SF-268 CNS = system: SF-268 CNS
# SF-295 CNS = system: SF-295 CNS
# SK-MEL-2 melanoma = system: SK-MEL-2 melanoma
# SK-MEL-28 melanoma = system: SK-MEL-28 melanoma
# SK-MEL-5 melanoma = system: SK-MEL-5 melanoma
# SK-OV-3 ovarian = system: SK-OV-3 ovarian
# SN12C renal = system: SN12C renal
# SNB-19 CNS = system: SNB-19 CNS
# SNB-75 CNS = system: SNB-75 CNS
# SW-620 colon = system: SW-620 colon
# T-47D breast = system: T-47D breast
# TK-10 renal = system: TK-10 renal
# U251 CNS = system: U251 CNS
# UACC-257 melanoma = system: UACC-257 melanoma
smiles,measurement,setting,value
Cc1ccc(NC(=O)c2cc(/C=C/C(=O)NO)cc(C(F)(F)F)c2)cc1Nc1nccc(-c2cccnc2)n1,GI50,786-0 renal,2410 nM
same,TGI,786-0 renal,5.31 µM
same,GI50,A498 renal,3.13 µM
same,TGI,A498 renal,6.65 µM
same,GI50,ACHN renal,3.12 µM
same,TGI,ACHN renal,> 100 µM
same,GI50,BT-549 breast,3.3 µM
same,TGI,BT-549 breast,8.5 µM
same,GI50,CAKI-1 renal,2230 nM
same,TGI,CAKI-1 renal,5.14 µM
same,GI50,CCRF-CEM leukemia,559 nM
same,TGI,CCRF-CEM leukemia,> 100 µM
same,GI50,DU-145 prostate,2040 nM
same,TGI,DU-145 prostate,6.63 µM
same,GI50,EKVX NSCLC,3.48 µM
same,TGI,EKVX NSCLC,> 100 µM
same,GI50,HCC-2998 colon,1760 nM
same,TGI,HCC-2998 colon,3.56 µM
same,GI50,HCT-15 colon,3.34 µM
same,TGI,HCT-15 colon,> 100 µM
same,GI50,HL-60(TB) leukemia,1080 nM
same,TGI,HL-60(TB) leukemia,3.73 µM
same,GI50,HOP-92 NSCLC,580 nM
same,TGI,HOP-92 NSCLC,2710 nM
same,GI50,HS 578T breast,1830 nM
same,TGI,HS 578T breast,6.35 µM
same,GI50,IGROV1 ovarian,1740 nM
same,TGI,IGROV1 ovarian,4.36 µM
same,GI50,LOX IMVI melanoma,1350 nM
same,TGI,LOX IMVI melanoma,3.02 µM
same,GI50,M14 melanoma,1340 nM
same,TGI,M14 melanoma,3.71 µM
same,GI50,MALME-3M melanoma,580 nM
same,TGI,MALME-3M melanoma,3.24 µM
same,GI50,MCF7 breast,1750 nM
same,TGI,MCF7 breast,5.85 µM
same,GI50,MDA-MB-231 breast,1140 nM
same,TGI,MDA-MB-231 breast,4.51 µM
same,GI50,MDA-MB-435,1530 nM
same,TGI,MDA-MB-435,4.24 µM
same,GI50,NCI-H226 lung,1780 nM
same,TGI,NCI-H226 lung,5.09 µM
same,GI50,NCI-H460 lung,2000 nM
same,TGI,NCI-H460 lung,12.3 µM
same,GI50,NCI-H522 lung,1350 nM
same,TGI,NCI-H522 lung,3.19 µM
same,GI50,NCI/ADR-RES ovarian,44 µM
same,TGI,NCI/ADR-RES ovarian,> 100 µM
same,GI50,OVCAR-3 ovarian,1520 nM
same,TGI,OVCAR-3 ovarian,4.21 µM
same,GI50,OVCAR-8 ovarian,1440 nM
same,TGI,OVCAR-8 ovarian,4.68 µM
same,GI50,PC-3 prostate,3.02 µM
same,TGI,PC-3 prostate,> 100 µM
same,GI50,RPMI-8226 leukemia,2110 nM
same,TGI,RPMI-8226 leukemia,8.76 µM
same,GI50,RXF 393 renal,1660 nM
same,TGI,RXF 393 renal,3.65 µM
same,GI50,SF-268 CNS,2350 nM
same,TGI,SF-268 CNS,5.7 µM
same,GI50,SF-295 CNS,1770 nM
same,TGI,SF-295 CNS,3.43 µM
same,GI50,SK-MEL-2 melanoma,1090 nM
same,TGI,SK-MEL-2 melanoma,3.32 µM
same,GI50,SK-MEL-28 melanoma,1560 nM
same,TGI,SK-MEL-28 melanoma,5.27 µM
same,GI50,SK-MEL-5 melanoma,1570 nM
same,TGI,SK-MEL-5 melanoma,3.01 µM
same,GI50,SK-OV-3 ovarian,1830 nM
same,TGI,SK-OV-3 ovarian,3.78 µM
same,GI50,SN12C renal,2540 nM
same,TGI,SN12C renal,> 100 µM
same,GI50,SNB-19 CNS,2700 nM
same,TGI,SNB-19 CNS,7.62 µM
same,GI50,SNB-75 CNS,2660 nM
same,TGI,SNB-75 CNS,5.83 µM
same,GI50,SW-620 colon,1540 nM
same,TGI,SW-620 colon,5.66 µM
same,GI50,T-47D breast,1410 nM
same,TGI,T-47D breast,5.8 µM
same,GI50,TK-10 renal,2980 nM
same,TGI,TK-10 renal,6.91 µM
same,GI50,U251 CNS,1490 nM
same,TGI,U251 CNS,3.03 µM
same,GI50,UACC-257 melanoma,1320 nM
same,TGI,UACC-257 melanoma,2800 nM
